Molecular target: Factor IXa (Homo sapiens (Human), UniProt P00740)
Test: Determination of inhibitory activity against Factor IXa (cleavage of fluorescent peptide CH3SO2-D-CHG-Gly-Arg-AFC)
Assay type: biochemical
Settings: read-out: FIXa IC50
Method: Determination of Inhibitory Activity Against Factor IXa
Formation of a clot to stem bleeding at a site of blood vessel injury involves the coordinated activity of a group of plasma proteins that initiate and propagate fibrin formation and subsequently protect fibrin from premature degradation. Factor IX is a key component of the plasma system that forms a fibrin clot at a site of vascular injury. The activity of Factor IXa is measured by monitoring the cleavage of the fluorescent peptide, CH3SO2-D-CHG-Gly-Arg-AFC.AcOH (“CHG” is cyclohexyl-glycine and “AFC” is trifluoro aminomethyl coumarin). Factor IXa cleaves the amide bond between Arg and AFC, thereby releasing the AFC fluorophore. The free AFC can be detected with a fluorescence detector at an excitation wavelength of 405 nm and emission wavelength of 510 nm.

Sequence of Factor IXa (P00740 227-461): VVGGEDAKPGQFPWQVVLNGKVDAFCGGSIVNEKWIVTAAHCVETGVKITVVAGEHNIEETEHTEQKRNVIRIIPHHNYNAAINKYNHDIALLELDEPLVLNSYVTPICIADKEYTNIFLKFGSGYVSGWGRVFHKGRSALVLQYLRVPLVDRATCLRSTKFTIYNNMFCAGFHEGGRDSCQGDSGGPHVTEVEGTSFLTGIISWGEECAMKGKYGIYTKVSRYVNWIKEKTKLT
Sequence of Factor IXa (P00740 47-191 partner): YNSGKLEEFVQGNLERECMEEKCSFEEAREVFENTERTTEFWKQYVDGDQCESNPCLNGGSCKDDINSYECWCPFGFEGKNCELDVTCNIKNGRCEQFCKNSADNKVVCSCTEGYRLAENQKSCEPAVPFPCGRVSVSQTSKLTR

IC50 [nM]	Structure (SMILES)
189	Cc1ccc2nc([C@@H](CNC(=O)c3ccc(-n4cnnc4)cc3Cl)c3ccccc3)[nH]c(=O)c2c1 [Example 91, (R)-2-Chloro-N-(2-(6-methyl-4-oxo-3,4-dihydroquinazolin-2-yl)-2-phenylethyl)-4-(4H-1,2,4-triazol-4-yl)benzamide]
1	Cc1ncn(-c2cc(Cl)c(C(=O)NC[C@@H](c3cccc(F)c3)c3nc4c(F)ccc(C)c4c(=O)[nH]3)c(Cl)c2)n1 [Example 92, (R)-2,6-dichloro-N-(2-(8-fluoro-5-methyl-4-oxo-3,4-dihydroquinazolin-2-yl)-2-(3-fluorophenyl)ethyl)-4-(3-methyl-1H-1,2,4-triazol-1-yl)benzamide]
4.6	Cc1ncn(-c2cc(Cl)c(C(=O)NC[C@@H](c3ccc(F)cc3)c3nc4c(F)ccc(C)c4c(=O)[nH]3)c(Cl)c2)n1 [Example 93, (R)-2,6-dichloro-N-(2-(8-fluoro-5-methyl-4-oxo-3,4-dihydroquinazolin-2-yl)-2-(4-fluorophenyl)ethyl)-4-(3-methyl-1H-1,2,4-triazol-1-yl)benzamide]
3.5	Cc1ncn(-c2cc(Cl)c(C(=O)NC[C@@H](c3cccc(F)c3)c3nc4c(F)ccc(Cl)c4c(=O)[nH]3)c(Cl)c2)n1 [Example 94, (R)-2,6-dichloro-N-(2-(5-chloro-8-fluoro-4-oxo-3,4-dihydroquinazolin-2-yl)-2-(3-fluorophenyl)ethyl)-4-(3-methyl-1H-1,2,4-triazol-1-yl)benzamide]

Same assay, conditions: read-out: hFIXa IC50

Structure (SMILES)	IC50 [nM]
O=C(NCC(c1ccccc1)c1nc2cc(Cl)ccc2c(=O)[nH]1)c1ccc(-n2cnnc2)cc1Cl (stereo not drawn) [Example 95]	803
O=C(NC[C@@H](c1ccccc1)c1nc2cccc(Cl)c2c(=O)[nH]1)c1ccc(-n2cnnc2)cc1Cl [Example 97]	51.5
O=C(NC[C@@H](c1ccccc1)c1nc2c(Cl)cccc2c(=O)[nH]1)c1ccc(-n2cnnc2)cc1Cl [Example 98]	178
O=C(NC[C@@H](c1ccccc1)c1nc2c(Cl)ccc(Cl)c2c(=O)[nH]1)c1ccc(-n2cnnc2)cc1Cl [Example 99]	43.1
Cc1cccc2nc([C@@H](CNC(=O)c3ccc(-n4cnnc4)cc3Cl)c3ccccc3)[nH]c(=O)c12 [Example 100]	16.8
O=C(O)c1ccc2ncn(-c3ccc(C(=O)NCC(c4cccc(F)c4)c4nc5c(F)ccc(Cl)c5c(=O)[nH]4)c(Cl)c3)c2c1 (stereo not drawn) [Example 104]	1.97
Cc1ccc(F)c2nc([C@@H](CNC(=O)c3ccc(-n4cnc(CCO)c4)cc3Cl)c3cccc(F)c3)[nH]c(=O)c12 [Example 107]	7.3
Cc1ccc(F)c2nc([C@@H](CNC(=O)c3ccc(-n4cnn(C)c4=O)cc3Cl)c3cccc(F)c3)[nH]c(=O)c12 [Example 109]	1.8
Cc1ccc(F)c2nc([C@@H](CNC(=O)c3ccc(-n4cnnc4C(F)F)cc3Cl)c3cccc(F)c3)[nH]c(=O)c12 [Example 111]	9.6
Cc1ncn(-c2cc(Cl)c(C(=O)NCC(c3cccc(F)c3)c3nc4cc(C)c(C)cc4[nH]c3=O)c(Cl)c2)n1 (stereo not drawn) [Example 116]	51.1

The remaining lines, values ahead:

IC50 [nM]	Structure (SMILES)
188	O=C(NC[C@@H](c1ccccc1)c1nc2ccc(Cl)cc2c(=O)[nH]1)c1ccc(-n2cnnc2)cc1Cl [Example 96]
6.68	Cc1ccc(F)c2nc(C(CNC(=O)c3ccc(-n4cnnc4)cc3Cl)c3ccccc3)[nH]c(=O)c12 (stereo not drawn) [Example 101]
10.7	Cc1ncn(-c2ccc(C(=O)NC[C@@H](c3ccccc3)c3nc4c(F)ccc(C)c4c(=O)[nH]3)c(Cl)c2)n1 [Example 102]
6.35	Cc1ncn(-c2ccc(C(=O)NC[C@@H](c3cccc(F)c3)c3nc4c(F)ccc(C)c4c(=O)[nH]3)c(Cl)c2)n1 [Example 103]
3.32	O=C(O)c1ccc2c(c1)ncn2-c1ccc(C(=O)NCC(c2cccc(F)c2)c2nc3c(F)ccc(Cl)c3c(=O)[nH]2)c(Cl)c1 (stereo not drawn) [Example 105]
8.5	Cc1ccc(F)c2nc([C@@H](CNC(=O)c3ccc(-c4ccnnc4)cc3Cl)c3cccc(F)c3)[nH]c(=O)c12 [Example 106]
9.2	Cc1ccc(F)c2nc([C@@H](CNC(=O)c3ccc(-c4ccc(=O)n(C)c4)cc3Cl)c3cccc(F)c3)[nH]c(=O)c12 [Example 108]
8.9	Cc1ncn(-c2cc(Cl)c(C(=O)NC[C@@H](c3cccnc3)c3nc4c(F)ccc(C)c4c(=O)n3C)c(Cl)c2)n1 [Example 110]
10.4	Cc1ncn(-c2cc(Cl)c(C(=O)NC[C@@H](c3cccc(F)c3)c3ccc4c(C)ccc(F)c4n3)c(Cl)c2)n1 [Example 113]
52.2	COc1cc([C@@H](CNC(=O)c2c(Cl)cc(-n3cnc(C)n3)cc2Cl)c2cccc(F)c2)nc2c(F)ccc(C)c12 [Example 114]
